Experimental data from patent US20230225991A1, “COMPOUNDS FOR USE IN THE TREATMENT OF ACUTE INTERMITTENT PORPHYRIA” (VESTLANDETS INNOVASJONSSELSKAP AS, priority 2019, published 2023).
Entries after “also recorded” stand apart in the source; their conditions may differ.

How the values were obtained:
[1] = target: T1, WT-HMBS (Homo sapiens, UniProt P08397); assay: Surface plasmon resonance (SPR), HMBS immobilized to sensor chip; conditions: sigmoidal fitting of binding isotherm, 25° C., 0-200 μM compound; read-out: S0.5 (concentration for half-maximal binding), SPR
T1 construct: Full-length HMBS was cloned into pET-28a(+)-TEV vector and transformed into BL21 (DE3) cells for expression; 6xHis (N, cleaved yes); TEV protease cleavage site (N, cleaved yes); made in house; host or cells: E. coli BL21 (DE3)
T1 sequence (P08397 1-361): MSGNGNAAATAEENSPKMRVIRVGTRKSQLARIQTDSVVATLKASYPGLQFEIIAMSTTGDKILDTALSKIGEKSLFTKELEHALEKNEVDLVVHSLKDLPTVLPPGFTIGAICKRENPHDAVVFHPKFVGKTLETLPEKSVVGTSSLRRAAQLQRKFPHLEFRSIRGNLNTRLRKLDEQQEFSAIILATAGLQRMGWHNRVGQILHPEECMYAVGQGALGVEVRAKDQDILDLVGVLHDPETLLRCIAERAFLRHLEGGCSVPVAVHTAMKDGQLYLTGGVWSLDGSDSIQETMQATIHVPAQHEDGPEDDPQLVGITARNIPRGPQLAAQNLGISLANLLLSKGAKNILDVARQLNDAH
Protocol: Surface plasmon resonance experiments for the estimation of the concentration of compound at half-maximal binding (S0.5) were performed using a Biacore T200 (GE Healthcare) instrument at 25° C. 150 μg/ml WT-HMBS in 10 mM sodium acetate pH 4.5 was immobilized onto a CM5-S sensor chip through amine-coupling chemistry and PBS containing 0.05% surfactant P20 as running buffer, reaching immobilization levels ˜15,000. The baseline was equilibrated for 1-2 h, before the compounds were assayed in a concentration-dependent manner (0-200 μM), using running buffer with 5% DMSO and 30 μl/min flow rate. Contact and dissociation time was 60 s, with a final wash after 50% DMSO injection. Blank immobilization, solvent correction and negative control (assay buffer) were included for the analysis of the sensorgrams using the Biacore T200 Evaluation software v2.0. The allosteric sigmoidal curve fitting was performed using GraphPad Prism.
The binding of compounds BG-1 and BG-2 to HMBS was analyzed by surface plasmon resonance (SPR) and response units from concentration-dependent steady state measurements were analyzed assuming a 1:1 binding model. […] The interaction between compound BG-1 and HMBS was therefore further studied with Octet RED96 system with super streptavidin (SSA) biosensors. […]

[2] = tested on: Hmbs-deficient T1/T2−/− mice; assay: Mouse trial T1/T2-B, phenobarbital-induced biochemical acute attack; type: in vivo; conditions: 20 mg/kg/day, 12 days; for Hepatic HMBS enzyme activity in liver homogenates: compared with control group; for Urinary ALA and PBG excretion: versus control group; for Increase in steady-state levels of HMBS in liver tissue: quantitative western immunoblotting
Protocol: The crude liver homogenates were passed through Zeba spin desalting columns (Thermo Fisher Scientific) to remove small molecules <2000 Da. 50 mM HEPES pH 8.2 was used as equilibration buffer. 25 μl filtrated homogenate (400-500 μg total protein) was added to 110 μl sample mix (50 mM HEPES, pH 8.2, 1% Triton™ X-100) and incubated for 10 min at 37° C. before adding PBG (1 mM). The reaction was stopped after 1 h by adding ice-cooled 100% TCA to a final concentration of 25%, incubated at room temperature (RT) for 10 min and centrifuged at 10,000 g for 10 min. The absorption was measured in the supernatant at A409 with baseline correction at A380 using NanoDrop™ 2000c spectrophotometer (Thermo Fisher Scientific). The activity of HMBS was expressed as relative activity in the compound-treated […] compared to DMSO-controls. A blank sample was prepared for each homogenate. The unpaired t-test (two tailed) was performed using GraphPad Prism.
Liver homogenates (5 μg total protein/lane) were loaded onto 10% Mini-Protean® TGX™ gels (Bio-Rad) and separated with Tris/Glycine/SDS electrophoresis buffer (Bio-Rad). Trans-Blot® Turbo™ Transfer Starter System (Bio-Rad) was used to transfer the proteins onto Immun-Blot® low fluorescence PVDF membranes (Bio-Rad). The membranes were then blocked with TBS containing 1% Tween® 20 (1% TBS-T) and 3% BSA for 1 h. HMBS was probed with 1:2,000 monoclonal mouse anti-HMBS (H-11, Santa Cruz Biotechnology), together with 1:1,000 rabbit anti-actin (Sigma-Aldrich), in 1% TBS-T, 3% BSA overnight, 4° C. Alexa Fluor 647 conjugated donkey-anti-mouse and Alexa Fluor 488 conjugated donkey-anti-rabbit (both Thermo Fisher Scientific) were used as secondary antibodies and incubated in 1:1,000 dilutions in 0.1% TBS-T for 1 h. Each step was followed by extensive wash with 0.1% TBS-T. Fluorescence detection was performed using G-Box Chemi-XRQ (Syngene Synoptics, Cambridge, UK) with filters UV06 and 705 nm for AF-488 and AF-647, respectively, and the band intensities of HMBS relative to the loading control (actin) were determined using ImageJ (Schneider et al., Nature methods 2012; 9(7): 671-5).

[3] = target: T1, WT-HMBS; assay: HMBS activity after pre-incubation with compound at 70° C.; type: biochemical; conditions: pre-incubation with compound at 70° C. 20 min, then standard assay 100 μM PBG at 37° C., 84 μM compound, 2% DMSO
Protocol: The effect of the compounds on the stability of HMBS activity was assayed by pre-incubating the HMBS (4-5 μg) in 50 mM HEPES pH 8.2, 84 μM compound and 2% DMSO for 20 min at 70° C., and then placed on ice for 5 min. The enzymatic activity at 37° C. was subsequently measured as reported previously (Bustad et al., Bioscience reports 2013; 3 3(4)). Controls without compound but with equal concentration of DMSO were included. The remaining activity in the presence of compounds was normalized relative to DMSO-control (relative activity). […] USA, www.graphpad.com.
An enzymatic assay was performed to investigate the effect of compound BG-1 on the activity and conformational stability of HMBS. HMBS activity of the purified enzyme was measured in the absence and presence of compound BG-1 (at 84 μM) at standard conditions (37° C.) but also after pre-incubation at 70° C. for 20 min based on the high thermal stability of WT-HMBS.

[4] = tested on: Hmbs-deficient T1/T2−/− mice; assay: Mouse trial T1/T2-A, phenobarbital-induced biochemical acute attack

| SMILES | Kd [1] [µM] | Hepatic HMBS enzyme activity in liver homogenates [2] | Urinary ALA and PBG excretion [2] | Increase in steady-state levels of HMBS in liver tissue [2] [fold] | Relative activity, pre-inc. at 70° C [3] | Toxicity in treated mice ([4]; 10 mg/kg/day oral gavage, 12 days, behavior and organ appearances) | HMBS protein levels or activity in erythrocytes or liver ([4]; 10 mg/kg/day, 12 days, compared to non-treated Hmbs-deficient mice) | Urinary levels of ALA ([4]; 10 mg/kg/day, day 12, compared to non-treated mice) | Relative concentration of ALA in liver ([2]; p<0.05 compared with control mice) | Relative concentration of PBG in liver ([2]; p=0.053 compared with control mice) |
| --- | --- | --- | --- | --- | --- | --- | --- | --- | --- | --- |
| O=C(c1ccccc1)c1ccc(Cl)c([N+](=O)[O-])c1 [BG-2] | 63 ± 3 | significantly increased enzyme activity | reduced | 2 |  |  |  |  |  |  |
| O=Cc1cc(Cc2ccccc2Cl)cc([N+](=O)[O-])c1O [BG-1] |  | significantly increased enzyme activity | reduced | 2 | 1.01 ± 0.06 | No apparent toxicity; also recorded: No toxic effect was registered | did not cause any significant change | slight decreasing tendency | decreased | decreased |
